Assays:
[1] = target: T1, recombinant soluble tissue factor and recombinant human factor VIIa (TF-VIIa) (Homo sapiens, UniProt P08709); assay: TF-VIIa Assay; format: biochemical; details: for IC50: read-out: IC50 TF-VIIa
T1 construct: conversion of coagulation factor VII to VIIa by Xa; purchased American Diagnostica, Greenwich Conn; host or cells: VIIa purchased; soluble TF made in house in E. coli

[2] = target: Human thrombin (Homo sapiens, UniProt P00734)
[3] = target: Human factor Xa (Homo sapiens, UniProt P00742); assay: Xa Assay; format: biochemical; parameters: purchased Enzyme Research Laboratories, South Bend Ind; details: at 30 µM inhibitor
Sequence of Human factor Xa (P00742 41-179 limits assumed): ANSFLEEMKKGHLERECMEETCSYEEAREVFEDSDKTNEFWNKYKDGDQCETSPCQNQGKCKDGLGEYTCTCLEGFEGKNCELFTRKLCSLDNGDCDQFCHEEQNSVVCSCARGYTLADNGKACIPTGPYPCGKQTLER
Sequence of Human factor Xa (P00742 235-488 limits assumed): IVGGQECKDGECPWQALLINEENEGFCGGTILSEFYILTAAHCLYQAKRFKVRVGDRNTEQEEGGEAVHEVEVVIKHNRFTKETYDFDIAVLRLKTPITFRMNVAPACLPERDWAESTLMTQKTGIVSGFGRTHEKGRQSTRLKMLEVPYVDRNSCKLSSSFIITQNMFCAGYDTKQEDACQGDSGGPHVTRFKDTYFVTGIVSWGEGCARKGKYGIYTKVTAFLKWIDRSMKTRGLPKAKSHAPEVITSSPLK

T1 sequence (P08709 61-212 limits assumed): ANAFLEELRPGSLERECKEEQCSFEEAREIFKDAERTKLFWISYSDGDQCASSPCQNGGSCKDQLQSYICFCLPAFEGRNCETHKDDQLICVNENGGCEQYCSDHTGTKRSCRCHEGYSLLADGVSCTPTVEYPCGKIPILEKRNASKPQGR
T1 sequence (P08709 213-466 limits assumed): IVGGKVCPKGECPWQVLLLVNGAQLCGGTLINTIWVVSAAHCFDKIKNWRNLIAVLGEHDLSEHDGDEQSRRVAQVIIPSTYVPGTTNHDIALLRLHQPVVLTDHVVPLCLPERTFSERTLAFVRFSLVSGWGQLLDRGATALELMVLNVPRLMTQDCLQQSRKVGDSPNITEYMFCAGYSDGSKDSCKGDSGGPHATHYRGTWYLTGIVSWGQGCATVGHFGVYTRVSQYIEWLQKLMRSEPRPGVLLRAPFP
T1 sequence (P13726 33-251 partner limits assumed): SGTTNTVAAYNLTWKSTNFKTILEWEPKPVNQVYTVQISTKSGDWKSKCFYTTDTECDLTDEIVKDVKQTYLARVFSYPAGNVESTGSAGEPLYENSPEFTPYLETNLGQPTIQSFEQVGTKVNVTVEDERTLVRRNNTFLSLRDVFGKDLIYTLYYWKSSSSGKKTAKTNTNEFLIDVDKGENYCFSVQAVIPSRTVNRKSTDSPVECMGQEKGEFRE

CN(C)CCNC(=N)c1ccc(CNC(=O)Cn2c(-c3cccc(N)c3)c(Cl)nc(NC3CCC3)c2=O)cc1 [Example 166]
IC50 [1]: 63 µM | % Inhibition Thrombin II (30 µM) [2]: 5% | % Inhibition Factor Xa (30 µM) [3]: 2%

N=C(N)c1ccc(CNC(=O)Cn2c(-c3cc(N)cc(N)c3)cnc(NC3CCC3)c2=O)cc1 [Example 119]
IC50 [1]: 0.01 µM | % Inhibition Thrombin II (30 µM) [2]: 45% | % Inhibition Factor Xa (30 µM) [3]: 26%

CC(C)Nc1nc(Cl)c(-c2cccc(N)c2)n(CC(=O)Nc2ccc(S(=O)(=O)NC(=N)N)cc2)c1=O [Example 155]
inhibition at 30 µM ([1]; 1 h, at 30 µM inhibitor): 1% | % Inhibition Thrombin II (30 µM) [2]: 2% | % Inhibition Factor Xa (30 µM) [3]: 11%

CC(C)Nc1nc(Cl)c(-c2cc(N)ccc2SCC(=O)O)n(CC(=O)NCc2ccc(C(=N)N)cc2)c1=O [Example 110]
IC50 [1]: 0.05 µM | % Inhibition Thrombin II (30 µM) [2]: 20% | % Inhibition Factor Xa (30 µM) [3]: 15%

N=C(NCc1ccccc1)c1ccc(CNC(=O)Cn2c(-c3cccc(N)c3)c(Cl)nc(NC3CCC3)c2=O)cc1 [Example 160]
IC50 [1]: 18 µM | % Inhibition Thrombin II (30 µM) [2]: 9% | % Inhibition Factor Xa (30 µM) [3]: 7%

Source: patent US6908919B2, “Substituted polycyclic aryl and heteroaryl pyrazinones useful for selective inhibition of the coagulation cascade” (Pharmacia Corporation, priority 1999, dated 2005)
